Assay results as given in PMC11189555, “Aryl amino acetamides prevent Plasmodium falciparum ring development via targeting the lipid-transfer protein PfSTART1” (Nature Communications, 2024).
Where two headings read alike, the source gives them in different places.

System: PopE F8 M-833 resistant clone (PfSTART1 N330K)
Test: Growth inhibition assay (72 h, LDH activity)
Format: cell-based, Plasmodium falciparum
Description: The drug was then removed, and parasites were allowed to recover. Another cycle of drug treatment (3 μM M-833) was then resumed. The resistant lines were cloned out by limiting dilution (diluting the culture into a 96-well plate to achieve an average of ~0.3 parasites per well), prior to growth inhibition assays and genomic DNA (gDNA) extraction (DNeasy Blood and Tissue kit (Qiagen)[18].
Parasite growth assays with inhibitory compounds were performed as per[11] and are fully described in the Supplementary Information.
Molecular biology and transfection of P. falciparum: CRISPR method.
The full 5’ homology region of pfstart1 (either WT, N309K or N330K) was amplified from pPfSTART1-HA-2A-Neo-glmS with the same 5’ BglII primer and a new 3’ primer that replaced with PstI with SpeI and introduced a stop codon. The PCR product was then digested with BglII and SpeI and inserted into similarly digested p1.2 parasite vector2. The p1.2 vector had previously been inserted with a homology region amplified from the 3’ end of the pfstart1 gene (3’HB) to form a second homology block for double recombination. The primers used to amplify 3’HB are listed primers listed in […]
60 μg of p1.2-PfSTART1(WT/N309K/N330K) plasmid was linearised with KasI, precipitated in 3 M sodium acetate and ethanol (70% final concentration) overnight at -20°C. The DNA pellet was washed in cold 70% ethanol and resuspended in cytomix 3.
50 μ M of crRNA ( Table S 2) and 50 μM of tracRNA (Integrated DNA Technologies) were allowed to form a duplex (5 min at 95°C), and Cas9 enzyme (Integrated DNA Technologies) was added, and incubated for 20 min at room temperature 4. This crRNA -tracRNA -Cas9 mix was added to each DNA preparation and transfected to 3D7 ring parasites using the Bio -Rad Gene Pulser at 310 V and 950 μF.
Parasites containing the transfected DNA were selected using 2.5 nM WR99210 (Jacobus). Parasites lines were cloned using limiting dilution. Correct integration was tested by PCR (using primer START_5’UTR.F and START_Int.R1 , Table S 2), and sequencing was done using the primers START_3F and START_Int.R2 (Table S 2).
Growth inhibition assays. Synchronised ring-stage parasites (0.3-0.6% parasitemia, 2% haematocrit) were grown for 72 h in a serial-dilution of the compound under […]
and compound 4. Note that M-833 was first purchased from MolPort (MolPort -002-267-916) then made in-house at WEHI: the differences observed in EC50s across experiments are attributed to the different batches of M -833. For some experiments, 0, 0.25 or 2.5 mM of glucosamine (GlcN) was also added. Experiments were set up in technical duplicates or triplicates. Following a freeze -thaw cycle, lactate dehydrogenase (LDH) activity was assessed as an indicator of parasite growt h 5. 30 μL of parasite culture was incubated for 30 min in the dark with 75 μL Malstat mixture (0.1 M Tris pH 9.0, 20 g/L lactic acid, pH 7.5, 0.2% Triton-X100, 0.5 g/L acetylpyridine adenine dinucleotide (APAD, Sigma), 200 μg/mL nitroblue tetrazolium (NBT; Sigma), 1 μg/mL phenozine ethosulfate (PES; Sigma)). Absorbance was then measured at 650 nm, transformed using the formula below, plotted against the logarithm of the concentrations, and a non-linear regression (log(inhibitor) vs. response, variable slope) was calculated using GraphPad Prism to assess the half-inhibitory […]
Growth inhibition % = (1 − average(sample)− average(uRBC)) ∗ 100 […]
The DMSO samples were also used to assess growth of parasite in the presence of 0.25 and 2.5 mM GlcN (normalised by DMSO in 0 mM GlcN).
Egress, invasion & recovery assay. To measure egress, invasion and follow up recovery in the presence of different compounds, we adapted the method developed in6, using Hyp1-Nluc parasites7. These parasites episomally express the exported PEXEL protein Hyp1 (PF3D7_0113300) tagged with a NanoLuc luciferase (NLuc) and were selected with 2.5 nM WR99210 (Jacobus). Highly synchronised schizonts were […]

Cc1cc(Cl)c(S(=O)(=O)N2CCCC2)cc1OCC(=O)NC1CCCCC1 [M-833]
Normalised to DMSO (M-833 0.0390625 uM, Pop E-F8 replicate 1): 109.671
Normalised to DMSO (M-833 0.0390625 uM, PopE-F8 replicate 3): 109.081
Normalised to DMSO (M-833 0.078125 uM, Pop E-F8 replicate 1): 111.583
Normalised to DMSO (M-833 0.078125 uM, PopE-F8 replicate 3): 106.576
Normalised to DMSO (M-833 0.15625 uM, Pop E-F8 replicate 1): 105.619
Normalised to DMSO (M-833 0.15625 uM, PopE-F8 replicate 3): 106.576
Normalised to DMSO (M-833 0.3125 uM, Pop E-F8 replicate 1): 109.939
Normalised to DMSO (M-833 0.3125 uM, PopE-F8 replicate 3): 106.263
Normalised to DMSO (M-833 0.625 uM, Pop E-F8 replicate 1): 106.384
Normalised to DMSO (M-833 0.625 uM, PopE-F8 replicate 3): 108.612
Normalised to DMSO (M-833 1.25 uM, Pop E-F8 replicate 1): 102.255
Normalised to DMSO (M-833 1.25 uM, PopE-F8 replicate 3): 105.48
Normalised to DMSO (M-833 2.5 uM, Pop E-F8 replicate 1): 99.4266
Normalised to DMSO (M-833 2.5 uM, PopE-F8 replicate 3): 94.0501
Normalised to DMSO (M-833 5 uM, Pop E-F8 replicate 1): 83.5245
Normalised to DMSO (M-833 5 uM, PopE-F8 replicate 3): 74.6347
Normalised to DMSO (M-833 10 uM, Pop E-F8 replicate 1): 58.7156
Normalised to DMSO (M-833 10 uM, PopE-F8 replicate 3): 75.7307
inhibition at 0.0390625 µM (Plasmodium falciparum, M-833 0.0390625 uM, Pop E-F8 replicate 1, read-out: % Inhibition): -9.67%
inhibition at 0.0390625 µM (Plasmodium falciparum, M-833 0.0390625 uM, PopE-F8 replicate 3, read-out: % Inhibition): -9.08%
inhibition at 0.078125 µM (Plasmodium falciparum, M-833 0.078125 uM, Pop E-F8 replicate 1, read-out: % Inhibition): -11.6%
inhibition at 0.078125 µM (Plasmodium falciparum, M-833 0.078125 uM, PopE-F8 replicate 3, read-out: % Inhibition): -6.58%
inhibition at 0.15625 µM (Plasmodium falciparum, M-833 0.15625 uM, Pop E-F8 replicate 1, read-out: % Inhibition): -5.62%
inhibition at 0.15625 µM (Plasmodium falciparum, M-833 0.15625 uM, PopE-F8 replicate 3, read-out: % Inhibition): -6.58%
inhibition at 0.3125 µM (Plasmodium falciparum, M-833 0.3125 uM, Pop E-F8 replicate 1, read-out: % Inhibition): -9.94%
inhibition at 0.3125 µM (Plasmodium falciparum, M-833 0.3125 uM, PopE-F8 replicate 3, read-out: % Inhibition): -6.26%
inhibition at 0.625 µM (Plasmodium falciparum, M-833 0.625 uM, Pop E-F8 replicate 1, read-out: % Inhibition): -6.38%
inhibition at 0.625 µM (Plasmodium falciparum, M-833 0.625 uM, PopE-F8 replicate 3, read-out: % Inhibition): -8.61%
inhibition at 1.25 µM (Plasmodium falciparum, M-833 1.25 uM, Pop E-F8 replicate 1, read-out: % Inhibition): -2.26%
inhibition at 1.25 µM (Plasmodium falciparum, M-833 1.25 uM, PopE-F8 replicate 3, read-out: % Inhibition): -5.48%
inhibition at 2.5 µM (Plasmodium falciparum, M-833 2.5 uM, Pop E-F8 replicate 1, read-out: % Inhibition): 0.573%
inhibition at 2.5 µM (Plasmodium falciparum, M-833 2.5 uM, PopE-F8 replicate 3, read-out: % Inhibition): 5.95%
inhibition at 5 µM (Plasmodium falciparum, M-833 5 uM, Pop E-F8 replicate 1, read-out: % Inhibition): 16.5%
inhibition at 5 µM (Plasmodium falciparum, M-833 5 uM, PopE-F8 replicate 3, read-out: % Inhibition): 25.4%
inhibition at 10 µM (Plasmodium falciparum, M-833 10 uM, Pop E-F8 replicate 1, read-out: % Inhibition): 41.3%
inhibition at 10 µM (Plasmodium falciparum, M-833 10 uM, PopE-F8 replicate 3, read-out: % Inhibition): 24.3%
inhibition at 0.0390625 µM (Plasmodium falciparum, Pop E-F8 replicate 1, M-833 0.0390625 uM): -1.3%
inhibition at 0.078125 µM (Plasmodium falciparum, Pop E-F8 replicate 1, M-833 0.078125 uM): -1.67%
inhibition at 0.15625 µM (Plasmodium falciparum, Pop E-F8 replicate 1, M-833 0.15625 uM): 1.93%
inhibition at 0.3125 µM (Plasmodium falciparum, Pop E-F8 replicate 1, M-833 0.3125 uM): 3.08%
inhibition at 0.625 µM (Plasmodium falciparum, Pop E-F8 replicate 1, M-833 0.625 uM): 3.36%
inhibition at 1.25 µM (Plasmodium falciparum, Pop E-F8 replicate 1, M-833 1.25 uM): 4.32%
inhibition at 2.5 µM (Plasmodium falciparum, Pop E-F8 replicate 1, M-833 2.5 uM): 11.8%
inhibition at 5 µM (Plasmodium falciparum, Pop E-F8 replicate 1, M-833 5 uM): 18.8%
inhibition at 10 µM (Plasmodium falciparum, Pop E-F8 replicate 1, M-833 10 uM): 41%
EC50 (Plasmodium falciparum, read-out: EC50 (95% confidence interval)): > 10 µM
Normalised to DMSO (Pop E-F8 replicate 1, M-833 0.0390625 uM): 101.305
Normalised to DMSO (Pop E-F8 replicate 1, M-833 0.078125 uM): 101.672
Normalised to DMSO (Pop E-F8 replicate 1, M-833 0.15625 uM): 98.0669
Normalised to DMSO (Pop E-F8 replicate 1, M-833 0.3125 uM): 96.9165
Normalised to DMSO (Pop E-F8 replicate 1, M-833 0.625 uM): 96.6437
Normalised to DMSO (Pop E-F8 replicate 1, M-833 1.25 uM): 95.6831
Normalised to DMSO (Pop E-F8 replicate 1, M-833 2.5 uM): 88.1997
Normalised to DMSO (Pop E-F8 replicate 1, M-833 5 uM): 81.2026
Normalised to DMSO (Pop E-F8 replicate 1, M-833 10 uM): 58.9777
